Test results taken from patent US20220323406A1, “METHODS AND COMPOSITIONS FOR DIFFERENTIATING STEM CELLS” (Massachusetts Institute of Technology, priority 2019, published 2022).

Tests used:
[1] = tested on: ENR+CD organoids (ISC to Paneth cell differentiation); assay: Primary screen: basal (non-stimulated) lysozyme secretion LYZ.NS, 2.5-D 384-well ENR+CD organoid differentiation; type: cell-based, mouse; conditions: primary screen; for Z.LYZ.NS: standard z score
Description: (§1) High-throughput screening.

[2] = tested on: ENR+CD organoids (ISC to Paneth cell differentiation); assay: Primary screen: CCh-stimulated lysozyme secretion LYZ.S, 2.5-D 384-well ENR+CD organoid differentiation; type: cell-based, mouse; conditions: primary screen
Description: as §1

ENR+CD organoids = assay: Primary screen: ATP (CellTiter-Glo 3D, CTG) cell number/viability, 2.5-D 384-well ENR+CD organoids; conditions: primary screen;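 further: compounds given at plating and again on day 3 over a 6-day differentiation from ENR+CV stem-cell-enriched precursors, ATP measured on day 6, plate median as control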
[3] = dose 0.08 uM, FC vs plate median
[4] = dose 0.40 uM, FC vs plate median
[5] = dose 2.00 uM, FC vs plate median
[6] = dose 10.00 uM, FC vs plate median

| Compound | Dose.FC.LYZ.NS ([1]; dose 0.08 uM) | Z.LYZ.NS (standard z score) ([1]; dose 0.08 uM) | Dose.FC.LYZ.NS ([1]; dose 0.40 uM) | Z.LYZ.NS (standard z score) ([1]; dose 0.40 uM) | Dose.FC.LYZ.NS ([1]; dose 2.00 uM) | Z.LYZ.NS (standard z score) ([1]; dose 2.00 uM) | Dose.FC.LYZ.NS ([1]; dose 10.00 uM) | Z.LYZ.NS (standard z score) ([1]; dose 10.00 uM) | Dose.FC.LYZ.S ([2]; dose 0.08 uM) | Dose.FC.LYZ.S ([2]; dose 0.40 uM) | Dose.FC.LYZ.S ([2]; dose 2.00 uM) | Dose.FC.LYZ.S ([2]; dose 10.00 uM) | Dose.FC.CTG (ENR+CD organoids; dose 0.08 uM) | Dose.FC.CTG (ENR+CD organoids; dose 0.40 uM) | Z.CTG (standard z score) (ENR+CD organoids; dose 0.40 uM) | Dose.FC.CTG (ENR+CD organoids; dose 2.00 uM) | Z.CTG (standard z score) (ENR+CD organoids; dose 2.00 uM) | Dose.FC.CTG (ENR+CD organoids; dose 10.00 uM) | Z.CTG (standard z score) (ENR+CD organoids; dose 10.00 uM) | further results |
| --- | --- | --- | --- | --- | --- | --- | --- | --- | --- | --- | --- | --- | --- | --- | --- | --- | --- | --- | --- | --- |
| CCN[C@H]1CN(CCCOC)S(=O)(=O)c2sc(S(N)(=O)=O)cc21 [Brinzolamide] | 0.133 log2 fold change | 1.159 | 0.084 log2 fold change | 0.733 | 0.059 log2 fold change | 0.511 | 0.060 log2 fold change | 0.521 | 0.030 log2 fold change | 0.052 log2 fold change | 0.064 log2 fold change | 0.083 log2 fold change | −0.007 log2 fold change | −0.068 log2 fold change | −0.163 | 0.118 log2 fold change | 0.282 | 0.078 log2 fold change | 0.186 | – |
| NC(=O)N1c2ccccc2CC(=O)c2ccccc21 [Oxcarbazepine] | – | – | – | – | – | – | – | – | – | – | – | – | – | – | – | – | – | – | – | Z.LYZ.NS ([1]; dose 0.08 uM): 0.035; Z.LYZ.NS ([1]; dose 0.40 uM): −0.001; Z.LYZ.NS ([1]; dose 2.00 uM): 0.349; Z.LYZ.NS ([1]; dose 10.00 uM): −0.527; Dose.FC.LYZ.NS [1, 3]: 0.004 log2 fold change; Dose.FC.LYZ.NS [1, 4]: 0.000 log2 fold change; Dose.FC.LYZ.NS [1, 5]: 0.040 log2 fold change; Dose.FC.LYZ.NS [1, 6]: −0.061 log2 fold change; Dose.FC.LYZ.S [2, 3]: 0.043 log2 fold change; Dose.FC.LYZ.S [2, 4]: 0.154 log2 fold change; Dose.FC.LYZ.S [2, 5]: 0.042 log2 fold change; Dose.FC.LYZ.S [2, 6]: −0.057 log2 fold change; Dose.FC.CTG (ENR+CD organoids; [3]): −0.021 log2 fold change; Dose.FC.CTG (ENR+CD organoids; [4]): −0.103 log2 fold change; Dose.FC.CTG (ENR+CD organoids; [5]): −0.082 log2 fold change; Dose.FC.CTG (ENR+CD organoids; [6]): −0.150 log2 fold change |
| O=c1ncccn1[C@@H]1O[C@H](CO)[C@@H](O)[C@H]1O [Zebularine] | 0.026 log2 fold change | 0.223 | 0.009 log2 fold change | 0.075 | 0.095 log2 fold change | 0.828 | 0.086 log2 fold change | 0.749 | 0.092 log2 fold change | 0.077 log2 fold change | 0.051 log2 fold change | 0.102 log2 fold change | 0.035 log2 fold change | 0.000 log2 fold change | – | −0.089 log2 fold change | – | −0.167 log2 fold change | – | – |
| COC1CCN(C(=O)c2cc(Cc3n[nH]c(=O)c4ccccc34)ccc2F)CC1 [AZD2461] | 0.038 log2 fold change | 0.334 | −0.038 log2 fold change | −0.327 | −0.074 log2 fold change | −0.641 | −0.172 log2 fold change | −1.497 | 0.097 log2 fold change | 0.015 log2 fold change | −0.100 log2 fold change | −0.224 log2 fold change | 0.073 log2 fold change | −0.040 log2 fold change | −0.095 | −0.232 log2 fold change | −0.555 | −0.336 log2 fold change | −0.803 | Z.CTG (standard z score) (ENR+CD organoids; dose 0.08 uM): 0.174 |
| C[C@@H](c1ncncc1F)[C@](O)(Cn1cncn1)c1ccc(F)cc1F [Voriconazole] | 0.252 log2 fold change | 2.192 | 0.193 log2 fold change | 1.682 | 0.067 log2 fold change | 0.588 | 0.018 log2 fold change | 0.153 | 0.180 log2 fold change | 0.120 log2 fold change | 0.097 log2 fold change | 0.048 log2 fold change | 0.258 log2 fold change | 0.306 log2 fold change | – | 0.285 log2 fold change | – | 0.328 log2 fold change | – | – |
